{"source": "patent US6358541B1", "about": "“Topical preparation for the treatment of hair loss” (priority 2000, dated 2002)", "origin": "cited, not measured here", "key": {"[1]": {"conditions": "topical"}, "[2]": {"conditions": "0.1 wt. % adapalene gel, versus petroleum jelly control"}, "comedones": {"system": "comedones", "conditions": "topical"}, "[3]": {"conditions": "vapor; OSHA list 1990"}}}
{"smiles": "O=C(O)CCCCCCCC(=O)O", "note": "[Azeleic acid, 1,7 heptanedicarboxylic acid]", "values": [{"measurement": "irritation relative to tretinoin (retinoic acid)", "setting": "[1]", "value": "less irritation than tretinoin"}]}
{"smiles": "COc1ccc(-c2ccc3cc(C(=O)O)ccc3c2)cc1C12CC3CC(CC(C3)C1)C2", "note": "[adapalene, Adapalene]", "values": [{"measurement": "irritative potential", "setting": "[2]", "value": "low irritative potential only slightly greater than a petroleum jelly control"}, {"measurement": "comedolytic activity", "setting": "comedones", "value": "significant comedolytic activity"}]}
{"smiles": "CC1=C(/C=C/C(C)=C/C=C/C(C)=C/C=O)C(C)(C)CCC1", "note": "[retinaldehyde, Retinaldehyde]", "values": [{"measurement": "irritation relative to tretinoin (retinoic acid)", "setting": "[1]", "value": "significantly less irritating than retinoic acid"}]}
{"smiles": "[O][Cl+][O-]", "note": "[chlorine dioxide]", "values": [{"measurement": "Permissible Exposure Level (PEL)", "setting": "[3]", "value": 0.1, "unit": "ppm"}]}
